± gives the expanded uncertainty stated by the source.

The conditions of the series: Crystal; DSC.

`NC(=O)c1cccnc1` [3-pyridinecarboxamide]: the Triple point temperature was 398.5 ± 3.1 K.
The figure for `O=C(O)c1ccccc1` [benzoic acid] is 392.5 ± 3.1 K.

Source of the values: the NIST ThermoML archive (doi:10.1021/acs.jced.8b00560).
